Source: patent publication US20060199770A1, “Functionalized carbon nanotubes, a process for preparing the same and their use in medicinal chemistry” (priority 2003, published 2006)
Where no end group is shown, it is not given here.

Legend:
mAb 21×27 = format: binding, mice
[1] = system: polyclonal mouse anti-FMDV peptide serum; format: binding
BALB/c mice = settings: mouse, in vivo; cited from earlier work

Substance | recognition by monoclonal antibodies (ELISA, FIG. 5B) (mAb 21×27) | recognition by polyclonal antibodies (ELISA, FIG. 5A) [1] | immunogenicity when injected alone with an adjuvant (BALB/c mice)
Ac-CGSGVRGDFGSLAPRVARQL [free FMDV peptide] | recognized equally well | recognized equally well | –
Ac-GSGVRGDFGSLAPRVARQL [FMDV 141-159 peptide] | – | – | not immunogenic
